Experimental data taken from patent US20100227859A1, “TRICYCLIC COMPOUNDS AS MATRIX METALLOPROTEINASE INHIBITORS” (priority 2007, published 2010).

Biological target: purified human MMP-12 enzyme (Homo sapiens, UniProt P39900)
Experiment: MMP-12 FRET assay
Assay type: biochemical
Conditions: substrate 20 μM, room temperature
Method: Compounds according to the present teachings were tested in an MMP-12 FRET assay as follows. To each well of black polystyrene 96-well plate was added assay buffer (50 mM HEPES (pH 7.4), 100 mM NaCl, 5 mM CaCl2 and 0.005% Brij-35 (Polyoxyethyleneglycol dodecyl ether, Pierce cat#20150), purified human MMP-12 enzyme, and varied concentrations of test compounds (prepared by serial dilution of a stock solution in 100% DMSO). The plates were incubated at room temperature for 30 minutes. The enzymatic reactions were initiated by addition of a substrate, MCA-Pro-Leu-Gly-Leu-Dpa(DNP)-Ala-Arg, containing a fluorescent group (7-methoxycoumarin, MCA) and a 2,4-dinitrophenyl group (DNP), to a final concentration of 20 μM. The final DMSO concentration in the assay was 10%. The reaction was monitored for 30 minutes at room temperature and the initial rate of the cleavage reaction was determined using a fluorescence plate reader (λex: 325 nm, λem: 395 nm). Plots of the inhibitor concentration vs. the initial cleavage rate were fit to the following equation: y=Vmax*(1−(x^n/(K^n+x^n))), whereby x=inhibitor concentration, y=initial rate, Vmax=initial rate in the absence of inhibitor, n=slope factor, and K=IC50 for the inhibition curve.

purified human MMP-12 enzyme, sequence (P39900 106-470): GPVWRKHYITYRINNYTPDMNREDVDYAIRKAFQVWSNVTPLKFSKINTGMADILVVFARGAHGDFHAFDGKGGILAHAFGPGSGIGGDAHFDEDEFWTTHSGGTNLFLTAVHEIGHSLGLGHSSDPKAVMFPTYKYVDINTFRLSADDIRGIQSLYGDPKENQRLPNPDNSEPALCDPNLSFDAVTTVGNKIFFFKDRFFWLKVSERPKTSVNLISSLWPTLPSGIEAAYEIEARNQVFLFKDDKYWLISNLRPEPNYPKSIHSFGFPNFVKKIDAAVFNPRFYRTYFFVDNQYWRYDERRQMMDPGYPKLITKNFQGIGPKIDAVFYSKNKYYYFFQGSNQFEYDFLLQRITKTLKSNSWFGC

SMILES	IC50
C/C=C\c1ccc2oc3cc(S(=O)(=O)N[C@H](C(=O)O)C(C)C)ccc3c2c1 [Compound 67, (S,Z)-3-methyl-2-(8-(prop-1-enyl)dibenzo[b,d]furan-3-sulfonamido)butanoic acid]	< 1.5 nM
CC(C)[C@H](NS(=O)(=O)c1ccc2c(c1)oc1ccc(C3=CCNCC3)cc12)C(=O)O [Compound 70, (S)-3-methyl-2-(8-(1,2,3,6-tetrahydropyridin-4-yl)dibenzo[b,d]furan-3-sulfonamido)butanoic acid]	5.4 nM
CC(C)[C@H](NS(=O)(=O)c1ccc2c(c1)oc1ccc(C3CCCC3)cc12)C(=O)O [Compound 71, (S)-2-(8-cyclopentyldibenzo[b,d]furan-3-sulfonamido)-3-methylbutanoic acid]	< 1.5 nM
CC(C)NC(=N)c1ccc2oc3cc(S(=O)(=O)N[C@H](C(=O)O)C(C)C)ccc3c2c1 [Compound 76, (S)-2-(8-(N-isopropylcarbamimidoyl)dibenzo[b,d]furan-3-sulfonamido)-3-methylbutanoic acid]	18 nM
CC(C)[C@H](NS(=O)(=O)c1ccc2c(c1)oc1cc(-c3ccoc3)ccc12)C(=O)O [Compound 79, (S)-2-(7-(furan-3-yl)dibenzo[b,d]furan-3-sulfonamido)-3-methylbutanoic acid]	< 1.5 nM
CC(C)[C@H](NS(=O)(=O)c1ccc2c(c1)oc1ccc(C3=NCCO3)cc12)C(=O)O [Compound 83, (S)-2-(8-(4,5-dihydrooxazol-2-yl)dibenzo[b,d]furan-3-sulfonamido)-3-methylbutanoic acid]	2.8 nM
CC(C)[C@H](NS(=O)(=O)c1ccc2c(c1)oc1cc(-c3ccc(Cl)s3)ccc12)C(=O)O [Compound 84, (S)-2-(7-(5-chlorothiophen-2-yl)dibenzo[b,d]furan-3-sulfonamido)-3-methylbutanoic acid]	< 1.5 nM
CC(C)[C@H](NS(=O)(=O)c1ccc2c(c1)oc1cc(-c3sc(Cl)cc3Cl)ccc12)C(=O)O [Compound 85, (S)-2-(7-(3,5-dichlorothiophen-2-yl)dibenzo[b,d]furan-3-sulfonamido)-3-methylbutanoic acid]	< 1.5 nM
CC(C)[C@H](NS(=O)(=O)c1ccc2c(c1)oc1ccc(C(=N)Nc3ccccc3)cc12)C(=O)O [Compound 87, (S)-3-methyl-2-(8-(N-phenylcarbamimidoyl)dibenzo[b,d]furan-3-sulfonamido)butanoic acid]	19 nM
CC(C)[C@H](NS(=O)(=O)c1ccc2c(c1)oc1ccc(C(=N)NCc3ccccc3)cc12)C(=O)O [Compound 88, (S)-2-(8-(N-benzylcarbamimidoyl)dibenzo[b,d]furan-3-sulfonamido)-3-methylbutanoic acid]	47 nM
Cc1cc(-c2ccc3oc4cc(S(=O)(=O)N[C@H](C(=O)O)C(C)C)ccc4c3c2)c(C)s1 [Compound 89, (S)-2-(8-(2,5-dimethylthiophen-3-yl)dibenzo[b,d]furan-3-sulfonamido)-3-methylbutanoic acid]	2.5 nM
CC(C)[C@H](NS(=O)(=O)c1ccc2c(c1)oc1ccc(-c3ccoc3Cl)cc12)C(=O)O [Compound 94, (S)-2-(8-(2-chlorofuran-3-yl)dibenzo[b,d]furan-3-sulfonamido)-3-methylbutanoic acid]	< 1.5 nM
CC(C)[C@H](NS(=O)(=O)c1ccc2c(c1)oc1ccc(-c3cc(Cl)oc3Cl)cc12)C(=O)O [Compound 95, (S)-2-(8-(2,5-dichlorofuran-3-yl)dibenzo[b,d]furan-3-sulfonamido)-3-methylbutanoic acid]	< 1.5 nM
CC(C)[C@@H](NS(=O)(=O)c1ccc2oc3cc(-c4ccoc4)ccc3c2c1)C(=O)O [Compound 96, (R)-2-(7-(furan-3-yl)dibenzo[b,d]furan-2-sulfonamido)-3-methylbutanoic acid]	13 nM
Cc1cscc1-c1ccc2c(c1)oc1ccc(S(=O)(=O)N[C@@H](C(=O)O)C(C)C)cc12 [Compound 99, (R)-3-methyl-2-(7-(4-methylthiophen-3-yl)dibenzo[b,d]furan-2-sulfonamido)butanoic acid]	12 nM
CC(C)[C@@H](NS(=O)(=O)c1ccc2oc3cc(-c4cc5ccccc5s4)ccc3c2c1)C(=O)O [Compound 100, (R)-2-(7-(benzo[b]thiophen-2-yl)dibenzo[b,d]furan-2-sulfonamido)-3-methylbutanoic acid]	4.9 nM
COc1ccc(-c2ccc3c(c2)oc2ccc(S(=O)(=O)N[C@@H](C(=O)O)C(C)C)cc23)cn1 [Compound 102, (R)-2-(7-(6-methoxypyridin-3-yl)dibenzo[b,d]furan-2-sulfonamido)-3-methylbutanoic acid]	< 1.5 nM
CC(C)[C@@H](NS(=O)(=O)c1ccc2oc3cc(-c4cn[nH]c4)ccc3c2c1)C(=O)O [Compound 103, (R)-2-(7-(1H-pyrazol-4-yl)dibenzo[b,d]furan-2-sulfonamido)-3-methylbutanoic acid]	16 nM
CC(=O)c1ccc(-c2ccc3c(c2)oc2ccc(S(=O)(=O)N[C@@H](C(=O)O)C(C)C)cc23)s1 [Compound 105, (R)-2-(7-(5-acetylthiophen-2-yl)dibenzo[b,d]furan-2-sulfonamido)-3-methylbutanoic acid]	21.8 nM
CCN(CC)C(=N)c1ccc2oc3cc(S(=O)(=O)N[C@H](C(=O)O)C(C)C)ccc3c2c1 [Compound 106, (S)-2-(8-(N,N-diethylcarbamimidoyl)dibenzo[b,d]furan-3-sulfonamido)-3-methylbutanoic acid]	400 nM

The next lines start with the values.

IC50	SMILES
< 1.5 nM	CC(C)[C@H](NS(=O)(=O)c1ccc2c(c1)oc1ccc(-c3ccc(Cl)s3)cc12)C(=O)O [Compound 74, (S)-2-(8-(5-chlorothiophen-2-yl)dibenzo[b,d]furan-3-sulfonamido)-3-methylbutanoic acid]
< 1.5 nM	CC(C)[C@H](NS(=O)(=O)c1ccc2c(c1)oc1ccc(-c3sc(Cl)cc3Cl)cc12)C(=O)O [Compound 75, (S)-2-(8-(3,5-dichlorothiophen-2-yl)dibenzo[b,d]furan-3-sulfonamido)-3-methylbutanoic acid]
23 nM	CC(C)[C@H](NS(=O)(=O)c1ccc2c(c1)oc1ccc(C3=NCCN3)cc12)C(=O)O [Compound 77, (S)-2-(8-(4,5-dihydro-1H-imidazol-2-yl)dibenzo[b,d]furan-3-sulfonamido)-3-methylbutanoic acid]
< 1.5 nM	CC(C)[C@H](NS(=O)(=O)c1ccc2c(c1)oc1cc(-c3ccco3)ccc12)C(=O)O [Compound 78, (S)-2-(7-(furan-2-yl)dibenzo[b,d]furan-3-sulfonamido)-3-methylbutanoic acid]
< 1.5 nM	CC(C)[C@H](NS(=O)(=O)c1ccc2c(c1)oc1cc(-c3ccc(Cl)o3)ccc12)C(=O)O [Compound 80, (S)-2-(7-(5-chlorofuran-2-yl)dibenzo[b,d]furan-3-sulfonamido)-3-methylbutanoic acid]
< 1.5 nM	CC(C)[C@H](NS(=O)(=O)c1ccc2c(c1)oc1cc(-c3cccs3)ccc12)C(=O)O [Compound 81, (S)-3-methyl-2-(7-(thiophen-2-yl)dibenzo[b,d]furan-3-sulfonamido)butanoic acid]
1.8 nM	CC(C)[C@H](NS(=O)(=O)c1ccc2c(c1)oc1ccc(C(=N)NO)cc12)C(=O)O [Compound 82, (S)-2-(8-(N-hydroxycarbamimidoyl)dibenzo[b,d]furan-3-sulfonamido)-3-methylbutanoic acid]
< 1.5 nM	CC(C)[C@H](NS(=O)(=O)c1ccc2c(c1)oc1cc(-c3sc(Cl)c(Cl)c3Cl)ccc12)C(=O)O [Compound 86, (S)-3-methyl-2-(7-(3,4,5-trichlorothiophen-2-yl)dibenzo[b,d]furan-3-sulfonamido)butanoic acid]
15 nM	COCC#Cc1ccc2c(c1)sc1cc(S(=O)(=O)N[C@@H](C(=O)O)C(C)C)ccc12 [Compound 90, (R)-2-(7-(3-methoxyprop-1-ynyl)dibenzo[b,d]thiophene-3-sulfonamido)-3-methylbutanoic acid]
68 nM	CC(C)[C@H](NS(=O)(=O)c1ccc2c(c1)oc1ccc(-c3ncon3)cc12)C(=O)O [Compound 93, (S)-2-(8-(1,2,4-oxadiazol-3-yl)dibenzo[b,d]furan-3-sulfonamido)-3-methylbutanoic acid]
< 1.5 nM	CC(C)[C@@H](NS(=O)(=O)c1ccc2oc3cc(-c4ccsc4)ccc3c2c1)C(=O)O [Compound 97, (R)-3-methyl-2-(7-(thiophen-3-yl)dibenzo[b,d]furan-2-sulfonamido)butanoic acid]
< 1.5 nM	CC(C)[C@@H](NS(=O)(=O)c1ccc2oc3cc(-c4ccco4)ccc3c2c1)C(=O)O [Compound 98, (R)-2-(7-(furan-2-yl)dibenzo[b,d]furan-2-sulfonamido)-3-methylbutanoic acid]
5.1 nM	CC(C)[C@@H](NS(=O)(=O)c1ccc2oc3cc(-c4ccc(Cl)nc4)ccc3c2c1)C(=O)O [Compound 101, (R)-2-(7-(6-chloropyridin-3-yl)dibenzo[b,d]furan-2-sulfonamido)-3-methylbutanoic acid]
59 nM	CC(C)[C@@H](NS(=O)(=O)c1ccc2oc3cc(/C=C/C4CCCCC4)ccc3c2c1)C(=O)O [Compound 104, (R,E)-2-(7-(2-cyclohexylvinyl)dibenzo[b,d]furan-2-sulfonamido)-3-methylbutanoic acid]
21 nM	CC(C)[C@H](NS(=O)(=O)c1ccc2c(c1)oc1ccc(C3=NCCS3)cc12)C(=O)O [Compound 107, (S)-2-(8-(4,5-dihydrothiazol-2-yl)dibenzo[b,d]furan-3-sulfonamido)-3-methylbutanoic acid]
